Measured values taken from PubChem BioAssay AID743388 (Vanderbilt Specialized Chemistry Center, 2014).
Where “and” joins values, the source holds several entries; their conditions need not be identical. Equal entries are not always repeated. Calls of active or inactive are those of the source. No rule for the calls is given here.

Biological target: Phospholipase D1 (Homo sapiens) (UniProt Q13393)
Assay: cellular phospholipase D1 activity inhibition – cell-based (AID 743388)
Settings: Calu-1 cells, PMA-stimulated, PtdBuOH-d9 by mass spectrometry, 30 min; at 20 µM; stronger effect = higher value

Sequence of Phospholipase D1 (Homo sapiens) (Q13393 whole entry, looked up): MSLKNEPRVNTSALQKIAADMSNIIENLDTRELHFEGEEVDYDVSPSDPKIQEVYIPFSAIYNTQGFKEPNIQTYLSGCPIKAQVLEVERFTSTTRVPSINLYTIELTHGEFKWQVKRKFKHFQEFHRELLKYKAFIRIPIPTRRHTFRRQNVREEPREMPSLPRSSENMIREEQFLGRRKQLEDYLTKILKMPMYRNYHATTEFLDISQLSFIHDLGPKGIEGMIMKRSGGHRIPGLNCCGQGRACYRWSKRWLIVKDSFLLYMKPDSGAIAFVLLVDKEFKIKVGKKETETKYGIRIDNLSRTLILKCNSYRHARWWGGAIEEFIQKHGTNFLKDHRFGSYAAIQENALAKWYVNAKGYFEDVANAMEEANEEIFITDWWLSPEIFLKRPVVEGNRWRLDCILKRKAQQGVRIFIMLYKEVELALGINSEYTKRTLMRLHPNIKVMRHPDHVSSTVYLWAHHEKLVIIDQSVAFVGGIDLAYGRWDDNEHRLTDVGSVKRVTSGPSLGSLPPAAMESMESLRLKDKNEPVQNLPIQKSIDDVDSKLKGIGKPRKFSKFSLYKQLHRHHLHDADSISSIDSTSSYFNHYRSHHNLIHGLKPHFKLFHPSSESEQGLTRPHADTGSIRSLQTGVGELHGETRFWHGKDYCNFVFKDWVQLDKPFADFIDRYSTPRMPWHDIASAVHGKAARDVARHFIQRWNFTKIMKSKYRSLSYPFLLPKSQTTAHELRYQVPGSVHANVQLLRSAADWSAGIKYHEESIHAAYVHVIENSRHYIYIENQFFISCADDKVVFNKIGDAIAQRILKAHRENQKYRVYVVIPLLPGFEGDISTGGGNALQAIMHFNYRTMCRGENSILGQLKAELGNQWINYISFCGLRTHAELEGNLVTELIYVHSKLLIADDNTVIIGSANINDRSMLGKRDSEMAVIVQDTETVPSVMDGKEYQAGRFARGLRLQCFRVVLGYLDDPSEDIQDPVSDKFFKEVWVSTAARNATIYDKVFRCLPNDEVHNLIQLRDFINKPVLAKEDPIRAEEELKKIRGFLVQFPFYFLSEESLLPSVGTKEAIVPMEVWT

SMILES	inhibition
O=C(NCCN1CCC2(CC1)C(=O)NCN2Cc1ccc(Cl)cc1)c1ccc2ccccc2c1	64%
O=C(NCCN1CCC2(CC1)C(=O)NCN2Cc1cccnc1)c1ccc(Cl)cc1F	0% (inactive)
O=C(NCCN1CCC2(CC1)C(=O)NCN2Cc1cccnc1)c1ccc(Br)cc1	9% (inactive)
O=C(NCCN1C=CC2(CC1)C(=O)NCN2Cc1cccnc1)c1cccc2nsnc12 (stereo not drawn)	9% (inactive)
O=C(NCCN1CCC2(CC1)C(=O)NCN2Cc1cccnc1)c1cc2cc(F)ccc2[nH]1	4% (inactive)
Cc1nc2sc(C(=O)NCCN3CCC4(CC3)C(=O)NCN4Cc3cccnc3)c(N)c2c(C)c1C	9% (inactive)
O=C(NCCN1CCC2(CC1)C(=O)NCN2Cc1cccnc1)c1nc(-c2ccc(F)cc2)no1	30% (inactive)
O=C(NCCN1CCC2(CC1)C(=O)NCN2Cc1cccnc1)c1cc2cccnc2[nH]1	16% (inactive)
O=C(NCCN1CCC2(CC1)C(=O)NCN2Cc1ccccc1Cl)c1ccc2ccccc2c1	91%
O=C(NCCN1CCC2(CC1)C(=O)NCN2Cc1cccc(OC(F)(F)F)c1)c1ccc2ccccc2c1	10% (inactive)
O=C(NCCN1CCC2(CC1)C(=O)NCN2c1cncc(F)c1)c1ccc(Br)cc1	12% (inactive)
Cc1cc(C)c2cc(C(=O)NCCN3CCC4(CC3)C(=O)NCN4Cc3cccnc3)[nH]c2c1	13% (inactive)
COc1cc(C(=O)NCCN2CCC3(CC2)C(=O)NCN3Cc2cccnc2)cc(OC)c1OC	0% (inactive)
O=C(NCCN1CCC2(CC1)C(=O)NCN2Cc1cccnc1)c1cccc(Cl)c1	0% (inactive)
O=C(NCCN1CCC2(CC1)C(=O)NCN2Cc1cccnc1)c1cc(F)cc(F)c1	0% (inactive)
O=C(NCCN1CCC2(CC1)C(=O)NCN2Cc1cccnc1)c1ccc(C(F)(F)F)cc1	0% (inactive)
O=C(NCCN1CCC2(CC1)C(=O)NCN2c1ccc(C(F)(F)F)nc1)c1ccc2ccccc2c1	2% (inactive)
O=C(NCCN1CCC2(CC1)C(=O)NCN2Cc1ccccc1F)c1ccc2ccccc2c1	77% and 87%
O=C(NCCN1CCC2(CC1)C(=O)NCN2c1cncc(F)c1)c1ccc(F)cc1	25% (inactive)
O=C(NCCN1CCC2(CC1)C(=O)NCN2Cc1ccccc1Br)c1ccc2ccccc2c1	96%
O=C(NCCN1CCC2(CC1)C(=O)NCN2c1cccnc1)c1ccc(F)c(F)c1	16% (inactive)
O=C(NCCN1CCC2(CC1)C(=O)NCN2c1cncc(F)c1)c1ccc(F)c(F)c1	17% (inactive)
O=C(NCCN1CCC2(CC1)C(=O)NCN2C(=O)C1CCC1)c1ccc2ccccc2c1	80%
O=C(NCCN1CCC2(CC1)C(=O)NCN2Cc1cccnc1)c1ccnc2ccccc12	13% (inactive)
O=C(NCCN1CCC2(CC1)C(=O)NCN2c1cncc(F)c1)c1cc(F)c(F)c(F)c1	17% (inactive)
O=C(NCCN1CCC2(CC1)C(=O)NCN2Cc1ccccn1)c1ccc2ccccc2c1	88%

SMILES	inhibition
O=C(NCCN1CCC2(CC1)C(=O)NCN2Cc1cccnc1)c1ccc2cc(F)ccc2c1	9% (inactive)
O=C(NCCN1CCC2(CC1)C(=O)NCN2Cc1cccc2ccccc12)c1ccc2ccccc2c1	94%
O=C(NCCN1CCC2(CC1)C(=O)NCN2CC1CC1)c1ccc2ccccc2c1	43% (inactive)
Cc1cc(Br)cnc1C(=O)NCCN1CCC2(CC1)C(=O)NCN2Cc1cccnc1	0% (inactive)
O=C(NCCN1CCC2(CC1)C(=O)NCN2Cc1cccc(Cl)c1)c1ccc2ccccc2c1	89%
O=C(NCCN1CCC2(CC1)C(=O)NCN2Cc1cccnc1)c1cccc2cccnc12	4% (inactive)
O=C(NCCN1CCC2(CC1)C(=O)NCN2Cc1cccnc1)c1ccc2ccccc2c1	37% (inactive) and 38% (inactive)
O=C(NCCN1CCC2(CC1)C(=O)NCN2Cc1cccnc1)c1cccs1	3% (inactive)
Cn1cc(C(=O)NCCN2CCC3(CC2)C(=O)NCN3Cc2cccnc2)c2ccccc21	5% (inactive)
O=C(NCCN1CCC2(CC1)C(=O)NCN2Cc1cccnc1)c1ccccc1F	0% (inactive)
O=C(NCCN1CCC2(CC1)C(=O)NCN2c1cncc(F)c1)c1ccc2ccccc2c1	14% (inactive)
O=C(NCCN1CCC2(CC1)C(=O)NCN2Cc1cccnc1)c1cccc(F)c1	2% (inactive)
O=C(NCCN1CCC2(CC1)C(=O)NCN2C(=O)c1cccc(F)c1)c1ccc2ccccc2c1	50%
O=C(NCCN1CCC2(CC1)C(=O)NCN2Cc1cccnc1)c1sc2ncccc2c1-n1cccc1	29% (inactive)
O=C(NCCN1CCC2(CC1)C(=O)NCN2Cc1cccnc1)c1ccc(Cl)c(Cl)c1	13% (inactive)
O=C(NCCN1CCC2(CC1)C(=O)NCN2Cc1cccnc1)c1ccc(F)cc1Cl	0% (inactive)
O=C(NCCN1CCC2(CC1)C(=O)NCN2C(=O)C1CC1)c1ccc2ccccc2c1	83%
O=C(NCCN1CCC2(CC1)C(=O)NCN2c1ccnc(F)c1)c1ccc2ccccc2c1	3% (inactive)
O=C(NCCN1CCC2(CC1)C(=O)NCN2Cc1cccnc1)c1cc2ccccc2[nH]1	64%
O=C(NCCN1CCC2(CC1)C(=O)NCN2Cc1ccccc1)c1ccc2ccccc2c1	72%
O=C(NCCN1CCC2(CC1)NCNC2=O)c1ccc2ccccc2c1	7% (inactive)
O=C(NCCN1CCC2(CC1)C(=O)NCN2C(=O)c1ccccc1)c1ccc2ccccc2c1	45% (inactive)
Cc1cc(N2CNC(=O)C23CCN(CCNC(=O)c2ccc4ccccc4c2)CC3)ccn1	7% (inactive)
O=C(NCCN1CCC2(CC1)C(=O)NCN2Cc1cccnc1)c1c[nH]c2ccccc12	25% (inactive)
O=C(NCCN1CCC2(CC1)C(=O)NCN2Cc1cccnc1)c1ccc(F)cc1	3% (inactive)
O=C(NCCN1CCC2(CC1)C(=O)NCN2Cc1cccnc1)c1cc2ccccc2o1	14% (inactive)

SMILES	inhibition
O=C(NCCN1CCC2(CC1)C(=O)NCN2Cc1cccnc1)c1ccc(F)cc1F	7% (inactive)
O=C(NCCN1CCC2(CC1)C(=O)NCN2Cc1cccnc1)c1ccc2ccccc2c1Br	10% (inactive)
O=C(NCCN1CCC2(CC1)C(=O)NCN2c1cccnc1)c1cc2cc(F)ccc2[nH]1	9% (inactive)
O=C(NCCN1CCC2(CC1)C(=O)NCN2Cc1ccncc1)c1ccc2ccccc2c1	53%
O=C(NCCN1CCC2(CC1)C(=O)NCN2c1cncc(F)c1)c1cc2cc(F)ccc2[nH]1	26% (inactive)
O=C(NCCN1CCC2(CC1)C(=O)NCN2Cc1cccnc1)c1nccc2ccccc12	0% (inactive)
O=C(NCCN1CCC2(CC1)C(=O)NCN2c1ccnc(Cl)c1)c1ccc2ccccc2c1	0% (inactive)
O=C(NCCN1CCC2(CC1)C(=O)NCN2Cc1cccnc1)c1ccc(SC(F)(F)F)cc1	5% (inactive)
O=C(NCCN1CCC2(CC1)C(=O)NCN2Cc1cccnc1)c1ccc(F)cc1C(F)(F)F	0% (inactive)
Cn1c(C(=O)NCCN2CCC3(CC2)C(=O)NCN3Cc2cccnc2)cc2ccccc21	10% (inactive)
O=C(NCCN1CCC2(CC1)C(=O)NCN2Cc1cccnc1)c1c(F)ccc(Cl)c1F	0% (inactive)
O=C(NCCN1CCC2(CC1)C(=O)NCN2c1cncc(Br)c1)c1ccc2ccccc2c1	9% (inactive)
O=C(NCCN1CCC2(CC1)C(=O)NCN2Cc1cccnc1)c1cc(F)c(F)c(F)c1	0% (inactive)
O=C(NCCN1CCC2(CC1)C(=O)NCN2Cc1cccnc1)c1ccc2c(c1)C(=O)NC2=O	13% (inactive)
O=C(NCCN1CCC2(CC1)C(=O)NCN2Cc1cccnc1)c1ccc(F)c(F)c1	3% (inactive)
COc1cccc(C(=O)N2CNC(=O)C23CCN(CCNC(=O)c2ccc4ccccc4c2)CC3)c1	50%
O=C(NCCN1CCC2(CC1)C(=O)NCN2Cc1cccnc1)c1c(Cl)cncc1Cl	20% (inactive)
O=C(NCCN1CCC2(CC1)C(=O)NCN2c1cccnc1)c1ccc(Br)cc1	0% (inactive)
O=C(NCCN1CCC2(CC1)C(=O)NCN2c1cccnc1)c1ccc2ccccc2c1	7% (inactive)
O=C(NCCN1CCC2(CC1)C(=O)NCN2Cc1cccnc1)c1cccc(C(F)(F)F)c1	0% (inactive)
O=C(NCCN1CCC2(CC1)C(=O)NCN2c1cccnc1)c1cc(F)c(F)c(F)c1	6% (inactive)
O=C(NCCN1CCC2(CC1)C(=O)NCN2Cc1cccnc1)c1ccc(Cl)cc1Cl	0% (inactive)
O=C(NCCN1CCC2(CC1)C(=O)NCN2Cc1cccnc1)c1ccc2ccccc2n1	11% (inactive)
O=C(NCCN1CCC2(CC1)C(=O)NCN2c1cccnc1)c1ccc(F)cc1	7% (inactive)
Cc1ccc(S(=O)(=O)NCCN2CCC3(CC2)C(=O)NCN3Cc2cccnc2)cc1	0% (inactive)
O=C(NCCN1CCC2(CC1)C(=O)NCN2Cc1cccnc1)[C@@H]1C[C@H]1c1ccccc1	23% (inactive)
